Patent publication US20210379035A1, “Methods Of Treating Fabry Patients Having Renal Impairment” (Amicus Therapeutics, Inc., priority 2017, published 2021)

Columns and labels:
[1] = Plasma migalastat concentration in two Fabry patients with renal impairment (Example 3); type: in vivo, human; settings: for concentration at 3 h: 3 Hrs Post
Description: (§1) Thus, two Fabry patients with renal impairment were evaluated. One patient (P1) had moderate renal impairment, while the other patient (P2) had severe renal impairment. […] The comparison with the results from the ERT-naïve study allows for comparison of PK in the Fabry population with mostly normal, but some mild and a few moderately impaired Fabry patients. None of the patients in the ERT-naïve study had severe renal impairment because these patients were excluded from the study.

[2] = tested on: Fabry patients; assay: eGFR (MDRD) in Fabry patient P1; type: in vivo, human; settings: P1 on migalastat, moderate impairment
Description: as §1

[3] = tested on: Fabry patients; assay: ERT-naïve study: renal function (eGFR); type: in vivo, human; settings: for Annualized Change in eGFRCKD-EPI, mean ± SE: ERT-Naïve; for mean±SEM annualized rate of change of eGFRCKD-EPI: ERT-naïve study, baseline to 18/24 months
Description: One study was a 24-month trial, including a 6-month double-blind, placebo-controlled period, in 67 ERT-naïve patients. The other study was an active-controlled, 18-month trial in 57 ERT-experienced patients with a 12-month open-label extension (OLE). Both the ERT-naïve and ERT-experienced studies included Fabry patients having an eGFR of ≥30 mL/min/1.73 m^2. The study designs for these studies are shown in FIGS. 10A-B. In the ERT-naïve study, the primary efficacy parameter was GL-3 inclusions per kidney interstitial capillary. […] A further analysis of data from these studies examined annualized change in […], WBC α-Gal A activity and plasma lyso-Gb3 levels based on renal function at baseline. The results for each renal subgroup are shown in Table 9 below, with the ERT-naïve study subgroups based on […] and the ERT-experienced study subgroups based on mGFRiohexol.

[4] = tested on: Fabry patients; assay: ERT-experienced study: renal function (eGFR, mGFR); type: in vivo, human; settings: for Annualized Change in eGFRCKD-EPI, mean ± SE: ERT-Experienced, Migalastat 0-18 months; for mean annualized rate of change of eGFRCKD-EPI / mean annualized rate of change mGFRiohexol / mean±SE annualized rate of change of eGFRCKD-EPI: ERT-experienced study; for mean annualized rate of change of eGFRCKD-EPI: baseline to 18 months (FIG. 12A); for mean annualized rate of change mGFRiohexol: baseline to 18 months (FIG. 12B); for mean±SE annualized rate of change of eGFRCKD-EPI: baseline to 18 months (FIG. 13)
Description: One study was a 24-month trial, including a 6-month double-blind, placebo-controlled period, in 67 ERT-naïve patients. The other study was an active-controlled, 18-month trial in 57 ERT-experienced patients with a 12-month open-label extension (OLE). Both the ERT-naïve and ERT-experienced studies included Fabry patients having an eGFR of ≥30 mL/min/1.73 m^2. […] Annualized change in eGFR using the Modification of Diet in Renal Disease ([…]) was also calculated. […] Although the number of patients with moderate renal impairment included in this analysis is two (compared to three for the ERT-naïve study), the data supports the efficacy of migalastat when administered to patients with some form of renal impairment. A further analysis of data from these studies examined annualized change in […], WBC α-Gal A activity and plasma lyso-Gb3 levels based on renal function at baseline. The results for each renal subgroup are shown in Table 9 below, with the ERT-naïve study subgroups based on […] and the ERT-experienced study subgroups based on mGFRiohexol.

[5] = tested on: Fabry patients; assay: ERT-experienced study: LVMi; type: in vivo, human; settings: Migalastat 0-18 months
Description: (§2) One study was a 24-month trial, including a 6-month double-blind, placebo-controlled period, in 67 ERT-naïve patients. The other study was an active-controlled, 18-month trial in 57 ERT-experienced patients with a 12-month open-label extension (OLE). Both the ERT-naïve and ERT-experienced studies included Fabry patients having an eGFR of ≥30 mL/min/1.73 m^2.
(§3) A further analysis of data from these studies examined annualized change in eGFRCKD-EPI, LVMi, WBC α-Gal A activity and plasma lyso-Gb3 levels based on renal function at baseline. The results for each renal subgroup are shown in Table 9 below, with the ERT-naïve study subgroups based on eGFRMDRD and the ERT-experienced study subgroups based on mGFRiohexol.

[6] = tested on: α-Gal A; assay: ERT-naïve study: WBC α-Gal A activity; type: in vivo, human
Description: as §2
(§4) A further analysis of data from these studies examined annualized change in eGFRCKD-EPI, LVMi, WBC α-Gal A activity and plasma lyso-Gb3 levels based on renal function at baseline.

[7] = tested on: α-Gal A; assay: ERT-experienced study: WBC α-Gal A activity; type: in vivo, human; settings: Migalastat 0-18 months
Description: as §2, §4

[8] = tested on: plasma lyso-GB3; assay: ERT-experienced study: plasma lyso-Gb3; type: in vivo, human; settings: Migalastat 0-18 months
Description: as §2, §3

[9] = tested on: GL-3 inclusions per kidney interstitial capillary; assay: ERT-naïve study: kidney interstitial capillary GL-3 inclusions; type: in vivo, human
Description: In the ERT-naïve study, the primary efficacy parameter was GL-3 inclusions per kidney interstitial capillary. Renal function was also evaluated by mGFRiohexol, eGFRCKD-EPI and eGFRMDRD.

[10] = biological target: T1, α-Gal A (Homo sapiens, UniProt P06280); settings: selective and reversible binding; cited from earlier work
T1 sequence (P06280 32-429): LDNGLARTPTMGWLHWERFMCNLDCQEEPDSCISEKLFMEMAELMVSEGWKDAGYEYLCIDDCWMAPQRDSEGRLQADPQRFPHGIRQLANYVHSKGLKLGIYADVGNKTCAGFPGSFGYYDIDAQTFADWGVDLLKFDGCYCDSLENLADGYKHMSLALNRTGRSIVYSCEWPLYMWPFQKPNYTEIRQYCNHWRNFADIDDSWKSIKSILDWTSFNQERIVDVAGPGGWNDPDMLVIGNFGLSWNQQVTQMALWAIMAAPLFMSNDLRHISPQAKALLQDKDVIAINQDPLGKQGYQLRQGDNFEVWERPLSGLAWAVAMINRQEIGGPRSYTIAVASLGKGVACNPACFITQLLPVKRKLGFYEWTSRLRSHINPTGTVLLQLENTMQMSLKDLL

[11] = P1, second measurement set 6 months after the first
[12] = Migalastat→Migalastat 0-24 months, renal subgroup 30 to < 60
[13] = Migalastat→Migalastat 0-24 months, renal subgroup ≥60
[14] = Placebo→Migalastat 6-24 months, renal subgroup 30 to < 60
[15] = Placebo→Migalastat 6-24 months, renal subgroup ≥60
[16] = mild or moderate renal impairment

OC[C@H]1NC[C@H](O)[C@@H](O)[C@H]1O [migalastat, (2R,3S,4R,5S)-2-(hydroxymethyl) piperdine-3,4,5-triol]
increase of C48 concentration [1, 11]: 49%
increase of Cmax [1, 11]: 33%
concentration at 3 h ([1]; human, plasma, Migalastat Conc 6 months later, Fabry patient P1, moderate renal impairment): 2160 ng/mL
concentration at 24 h ([1]; human, plasma, Migalastat Conc 6 months later, Fabry patient P1, moderate renal impairment, 24 Hrs Post): 211 ng/mL
concentration at 48 h ([1]; human, plasma, Migalastat Conc 6 months later, Fabry patient P1, moderate renal impairment, 48 Hrs Post): 62.4 ng/mL
concentration at 3 h ([1]; human, plasma, Migalastat Conc, Fabry patient P1, moderate renal impairment): 1620 ng/mL
concentration at 24 h ([1]; human, plasma, Migalastat Conc, Fabry patient P1, moderate renal impairment, 24 Hrs Post): 168 ng/mL
concentration at 48 h ([1]; human, plasma, Migalastat Conc, Fabry patient P1, moderate renal impairment, 48 Hrs Post): 41.8 ng/mL
concentration at 2 h ([1]; human, plasma, Migalastat Concentration, Fabry patient P2, severe renal impairment, 2 h, Occasion 1): 564 ng/mL
concentration at 24 h ([1]; human, plasma, Migalastat Concentration, Fabry patient P2, severe renal impairment, 24 h, Occasion 2): 569 ng/mL
concentration at 48 h ([1]; human, plasma, Migalastat Concentration, Fabry patient P2, severe renal impairment, 48 h, Occasion 1): 322 ng/mL
concentration at 48 h ([1]; human, plasma, Migalastat Concentration, Fabry patient P2, severe renal impairment, 48 h, Occasion 2): 260 ng/mL
eGFRMDRD [2]: 32 mL/min
Annualized Change in eGFRCKD-EPI, mean ± SE [3, 12]: +3.2 ± 1.1 mL/min/1.73 m^2
Annualized Change in eGFRCKD-EPI, mean ± SE [3, 13]: −0.7 ± 0.6 mL/min/1.73 m^2
Annualized Change in eGFRCKD-EPI, mean ± SE [3, 14]: −2.8 ± 2.8 mL/min/1.73 m^2
Annualized Change in eGFRCKD-EPI, mean ± SE [3, 15]: +0.1 ± 0.7 mL/min/1.73 m^2
mean±SEM annualized rate of change of eGFRCKD-EPI ([3]; mild renal impairment): −0.8±1.01 mL/min/1.73 m^2/year
mean±SEM annualized rate of change of eGFRCKD-EPI ([3]; moderate renal impairment): −0.7±3.97 mL/min/1.73 m^2/year
mean±SEM annualized rate of change of eGFRCKD-EPI ([3]; normal renal function): 0.2±0.90 mL/min/1.73 m^2/year
Annualized Change in eGFRCKD-EPI, mean ± SE ([4]; renal subgroup 30 to < 60): −4.2 ± 2.7 mL/min/1.73 m^2
Annualized Change in eGFRCKD-EPI, mean ± SE ([4]; renal subgroup ≥60): −0.4 ± 0.8 mL/min/1.73 m^2
mean annualized rate of change of eGFRCKD-EPI [4, 16]: −3.33 mL/min/1.73 m^2/year
mean annualized rate of change of eGFRCKD-EPI ([4]; normal renal function): −0.4 mL/min/1.73 m^2/year
mean annualized rate of change mGFRiohexol [4, 16]: −3.51 mL/min/1.73 m^2/year
mean annualized rate of change mGFRiohexol ([4]; normal renal function): −4.35 mL/min/1.73 m^2/year
mean±SE annualized rate of change of eGFRCKD-EPI ([4]; mild renal impairment): −0.2±1.25 mL/min/1.73 m^2/year
mean±SE annualized rate of change of eGFRCKD-EPI ([4]; moderate renal impairment): −4.5±2.68 mL/min/1.73 m^2/year
mean±SE annualized rate of change of eGFRCKD-EPI ([4]; normal renal function): −2.0±0.57 mL/min/1.73 m^2/year
LVMi, change from baseline, mean ± SE ([5]; renal subgroup 30 to < 60): −10.2 ± 2.4 gm^2
LVMi, change from baseline, mean ± SE ([5]; renal subgroup ≥60): −4.8 ± 2.3 gm^2
WBC α-Gal A Activity (males only), change from baseline [6, 12]: +1.4 4MU/hr/mg
WBC α-Gal A Activity (males only), change from baseline, mean ± SE [6, 13]: +1.6 ± 1.5 4MU/hr/mg
WBC α-Gal A Activity (males only), change from baseline, mean ± SE [6, 14]: +4.0 ± 3.0 4MU/hr/mg
WBC α-Gal A Activity (males only), change from baseline, mean ± SE [6, 15]: 5.2 4MU/h/mg
WBC α-Gal A Activity (males only), change from baseline, mean ± SE ([7]; renal subgroup 30 to < 60): +4.6 ± 2.3 4MU/hr/mg
WBC α-Gal A Activity (males only), change from baseline, mean ± SE ([7]; renal subgroup ≥60): +5.5 ± 1.4 4MU/hr/mg
Plasma lyso-Gb3, change from baseline, mean ([8]; renal subgroup 30 to < 60): +0.5 nmol/L
Plasma lyso-Gb3, change from baseline, mean ([8]; renal subgroup ≥60): 1.9 nmol/L
change in kidney interstitial capillary GL-3 inclusions ([9]; baseline to month 6, eGFR<60 mL/min/1.73 m^2, n=3): −0.39
change in kidney interstitial capillary GL-3 inclusions ([9]; baseline to month 6, eGFR≥60 mL/min/1.73 m^2, n=22): −0.30
binding to the active site of wild-type α-Gal A and specific mutant forms of α-Gal A [10]: high affinity
